Key:
Human CD73 = target: T1, Human CD73 (Homo sapiens, UniProt P21589); experiment: CD73 Enzyme Assay; format: biochemical; conditions: 0.25 nM hCD73, 25 μM AMP, kinetic read at 360 nm; read-out: CD73 Enzyme Assay IC50
T1 construct: purchased R&D Systems; host or cells: CHO cells
T1 sequence (P21589 27-549): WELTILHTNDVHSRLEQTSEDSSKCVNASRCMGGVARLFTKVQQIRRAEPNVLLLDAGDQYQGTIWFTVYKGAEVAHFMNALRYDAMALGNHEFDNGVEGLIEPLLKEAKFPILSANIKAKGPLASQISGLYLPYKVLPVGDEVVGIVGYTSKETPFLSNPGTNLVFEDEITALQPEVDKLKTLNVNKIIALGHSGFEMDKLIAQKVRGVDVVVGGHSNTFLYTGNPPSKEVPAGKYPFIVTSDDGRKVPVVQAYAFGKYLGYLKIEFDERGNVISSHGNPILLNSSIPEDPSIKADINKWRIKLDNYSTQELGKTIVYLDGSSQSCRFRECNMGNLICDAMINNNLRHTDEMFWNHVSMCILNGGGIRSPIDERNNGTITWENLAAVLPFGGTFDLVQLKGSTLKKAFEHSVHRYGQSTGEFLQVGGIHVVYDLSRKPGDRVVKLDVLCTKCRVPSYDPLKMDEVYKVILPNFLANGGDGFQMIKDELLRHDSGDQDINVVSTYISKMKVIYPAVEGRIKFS

[1] = target: T2, CD73 on U138 human neuroglioma cells (Homo sapiens, UniProt P21589); experiment: CD73 Cell-Based Assay; conditions: U138 cells, AMP substrate, 2 hours at 37° C., inorganic phosphate by malachite green
T2 construct: U138 cells were obtained from ATCC and cultured in DMEM with 10% FBS; host or cells: U138 human neuroglioma cells
T2 sequence (P21589 27-549): T1 sequence (P21589 27-549)
Procedure: U138 human neuroglioma cells were used in these experiments. U138 cells were obtained from ATCC and cultured in DMEM with 10% FBS. 2500 cells were seeded into 96-well plate with 100 μL of media the day before the experiment. Cells were washed twice with 200 μL of assay buffer (20 mM HEPES, pH 7.4; 137 mM NaCl; 5.4 mM KCl; 1.3 mM CaCl2); 4.2 mM NaHCO3; 1 mg/mL glucose) to remove residual inorganic phosphate. After washing, 100 μL of buffer was added to each well, then 100 μL of a mixture of AMP substrate (200 μM) and diluted compound was added to each well. The cells were incubated at 37° C. (with 5% CO2) for 2 hours. 50 μL of supernatant was transferred to a 96-well assay plate and the concentration of inorganic phosphate was determined using malachite green reagent (R&D System; Cat: DY996).

Compound	IC50 (Human CD73) [nM]	IC50 [1] [nM]
C[C@H](Nc1nc(Cl)nc2c1ccn2[C@@H]1O[C@H](COCP(=O)(O)O)[C@@H](O)[C@H]1O)c1ccc(F)cc1 [Compound 68, [(2R,3S,4R,5R)-5-[2-chloro-4-[[(1S)-1-(4-fluorophenyl)ethyl]-amino]pyrrolo[2,3-d]-pyrimidin-7-yl]-3,4-dihydroxy-tetrahydro-furan-2-yl]methoxy-methylphosphonic acid]	10 to 100	10 to 100
C[C@@H](Nc1nc(Cl)nc2c1ccn2[C@@H]1O[C@H](COCP(=O)(O)O)[C@@H](O)[C@H]1O)c1ccc(F)cc1 [Compound 69, [(2R,3S,4R,5R)-5-[2-chloro-4-[[(1R)-1-(4-fluorophenyl)ethyl]-amino]pyrrolo[2,3-d]-pyrimidin-7-yl]-3,4-dihydroxy-tetrahydro-furan-2-yl]methoxy-methylphosphonic acid]	< 10	< 10
O=P(O)(O)COC[C@H]1O[C@@H](n2ccc3c(NC4CCCC4)nc(Cl)nc32)[C@H](O)[C@@H]1O [Compound 70, [(2R,3S,4R,5R)-5-[2-chloro-4-(cyclopentylamino)pyrrolo[2,3-d]pyrimidin-7-yl]-3,4-dihydroxy-tetrahydrofuran-2-yl]methoxymethylphosphonic acid]	< 10	< 10
N#Cc1nc(NC2CCCC2)c2ccn([C@@H]3O[C@H](COCP(=O)(O)O)[C@@H](O)[C@H]3O)c2n1 [Compound 71, [(2R,3S,4R,5R)-5-[2-cyano-4-(cyclopentyl-amino)pyrrolo[2,3-d]-pyrimidin-7-yl]-3,4-dihydroxy-tetrahydro-furan-2-yl]methoxy-methylphosphonic acid]	< 10	< 10
C[C@H](Nc1nc(C#N)nc2c1ccn2[C@@H]1O[C@H](COCP(=O)(O)O)[C@@H](O)[C@H]1O)c1ccc(F)cc1 [Compound 72, [(2R,3S,4R,5R)-5-[2-cyano-4-[[(1S)-1-(4-fluorophenyl)ethyl]-amino]pyrrolo[2,3-d]-pyrimidin-7-yl]-3,4-dihydroxy-tetrahydro-furan-2-yl]methoxy-methylphosphonic acid]	< 10	< 10
C[C@@H](Nc1nc(C#N)nc2c1ccn2[C@@H]1O[C@H](COCP(=O)(O)O)[C@@H](O)[C@H]1O)c1ccc(F)cc1 [Compound 73, [(2R,3S,4R,5R)-5-[2-cyano-4-[[(1R)-1-(4-fluorophenyl)ethyl]-amino]pyrrolo[2,3-d]-pyrimidin-7-yl]-3,4-dihydroxy-tetrahydro-furan-2-yl]methoxy-methylphosphonic acid]	< 10	< 10
C[C@H](Nc1nc(Cl)nc2c1ccn2[C@@H]1O[C@H](COCP(=O)(O)O)[C@@H](O)[C@H]1O)c1cccc(F)c1 [Compound 74, [(2R,3S,4R,5R)-5-[2-chloro-4-[[(1S)-1-(3-fluorophenyl)ethyl]-amino]pyrrolo[2,3-d]-pyrimidin-7-yl]-3,4-dihydroxy-tetrahydro-furan-2-yl]methoxy-methylphosphonic acid]	< 10	10 to 100
C[C@H](Nc1nc(C#N)nc2c1ccn2[C@@H]1O[C@H](COCP(=O)(O)O)[C@@H](O)[C@H]1O)c1cccc(F)c1 [Compound 75, [(2R,3S,4R,5R)-5-[2-cyano-4-[[(1S)-1-(3-fluorophenyl)ethyl]-amino]pyrrolo[2,3-d]-pyrimidin-7-yl]-3,4-dihydroxy-tetrahydro-furan-2-yl]methoxy-methylphosphonic acid]	< 10	10 to 100
C[C@H](Nc1nc(Cl)nc2c1c(F)cn2[C@@H]1O[C@H](COCP(=O)(O)O)[C@@H](O)[C@H]1O)c1ccccc1 [Compound 76, ((((2R,3S,4R,5R)-5-(2-chloro-5-fluoro-4-(((S)-1-phenylethyl)amino)-7H-pyrrolo[2,3-d]pyrimidin-7-yl)-3,4-dihydroxytetrahydrofuran-2-yl)methoxy)methyl)phosphonic acid]	< 10	10 to 100
CC[C@@H](Nc1nc(Cl)nc2c1ccn2[C@@H]1O[C@H](COCP(=O)(O)O)[C@@H](O)[C@H]1O)c1ccccc1 [Compound 77, [(2R,3S,4R,5R)-5-[2-chloro-4-[[(1R)-1-phenylpropyl]amino]-pyrrolo[2,3-d]-pyrimidin-7-yl]-3,4-dihydroxy-tetrahydro-furan-2-yl]methoxy-methylphosphonic acid]	10 to 100	10 to 100
CC(C)[C@@H](Nc1nc(Cl)nc2c1ccn2[C@@H]1O[C@H](COCP(=O)(O)O)[C@@H](O)[C@H]1O)c1ccccc1 [Compound 78]	10 to 100	< 10
C[C@H](Nc1nc(Cl)nc2c1ccn2[C@@H]1O[C@H](COCP(=O)(O)O)[C@@H](O)[C@H]1O)c1ccccc1F [Compound 79, [(2R,3S,4R,5R)-5-[2-chloro-4-[[(1S)-1-(2-fluorophenyl)ethyl]-amino]pyrrolo[2,3-d]-pyrimidin-7-yl]-3,4-dihydroxy-tetrahydro-furan-2-yl]methoxy-methylphosphonic acid]	< 10	10 to 100
C[C@H](Nc1nc(C#N)nc2c1ccn2[C@@H]1O[C@H](COCP(=O)(O)O)[C@@H](O)[C@H]1O)c1ccccc1F [Compound 80, [(2R,3S,4R,5R)-5-[2-cyano-4-[[(1S)-1-(2-fluorophenyl)ethyl]-amino]pyrrolo[2,3-d]-pyrimidin-7-yl]-3,4-dihydroxy-tetrahydro-furan-2-yl]methoxy-methylphosphonic acid]	< 10	< 10
C[C@@H](Nc1nc(C#N)nc2c1ccn2[C@@H]1O[C@H](COCP(=O)(O)O)[C@@H](O)[C@H]1O)c1cccc(F)c1 [Compound 81, [(2R,3S,4R,5R)-5-[2-cyano-4-[[(1R)-1-(3-fluorophenyl)ethyl]-amino]pyrrolo[2,3-d]-pyrimidin-7-yl]-3,4-dihydroxy-tetrahydro-furan-2-yl]methoxy-methylphosphonic acid]	< 10	< 10
C[C@@H](Nc1nc(Cl)nc2c1ccn2[C@@H]1O[C@H](COCP(=O)(O)O)[C@@H](O)[C@H]1O)c1cccc(F)c1 [Compound 82, [(2R,3S,4R,5R)-5-[2-chloro-4-[[(1R)-1-(3-fluorophenyl)ethyl]-amino]pyrrolo[2,3-d]-pyrimidin-7-yl]-3,4-dihydroxy-tetrahydro-furan-2-yl]methoxy-methylphosphonic acid]	10 to 100	< 10
O=P(O)(O)COC[C@H]1O[C@@H](n2ccc3c(NC4CC(F)(F)C4)nc(Cl)nc32)[C@H](O)[C@@H]1O [Compound 83, [(2R,3S,4R,5R)-5-[2-chloro-4-[(3,3-difluoro-cyclobutyl)amino]-pyrrolo[2,3-d]-pyrimidin-7-yl]-3,4-dihydroxy-tetrahydro-furan-2-yl]methoxy-methylphosphonic acid]	< 10	< 10
CC[C@H](Nc1nc(Cl)nc2c1ccn2[C@@H]1O[C@H](COCP(=O)(O)O)[C@@H](O)[C@H]1O)c1ccccc1 [Compound 84, [(2R,3S,4R,5R)-5-[2-chloro-4-[[(1S)-1-phenylpropyl]amino]-pyrrolo[2,3-d]-pyrimidin-7-yl]-3,4-dihydroxy-tetrahydro-furan-2-yl]methoxy-methylphosphonic acid]	< 10	< 10
CC(C)[C@H](Nc1nc(Cl)nc2c1ccn2[C@@H]1O[C@H](COCP(=O)(O)O)[C@@H](O)[C@H]1O)c1ccccc1 [Compound 85, [(2R,3S,4R,5R)-5-[2-chloro-4-[[(1S)-2-methyl-1-phenyl-propyl]amino]pyrrolo-[2,3-d]pyrimidin-7-yl]-3,4-dihydroxy-tetrahydrofuran-2-yl]methoxymethyl-phosphonic acid]	< 10	< 10
Nc1nc(Cl)nc2c1ccn2[C@@H]1O[C@H](COCP(=O)(O)O)[C@@H](O)[C@H]1O [Compound 86, [(2R,3S,4R,5R)-5-(4-amino-2-chloro-pyrrolo[2,3-d]-pyrimidin-7-yl)-3,4-dihydroxy-tetrahydro-furan-2-yl]methoxy-methylphosphonic acid]	100 to 1000	100 to 1000
C[C@@H](Nc1nc(Cl)nc2c1ccn2[C@@H]1O[C@H](COCP(=O)(O)O)[C@@H](O)[C@H]1O)c1ccccc1F [Compound 87, [(2R,3S,4R,5R)-5-[2-chloro-4-[[(1R)-1-(2-fluorophenyl)ethyl]-amino]pyrrolo[2,3-d]-pyrimidin-7-yl]-3,4-dihydroxy-tetrahydro-furan-2-yl]methoxy-methylphosphonic acid]	< 10	< 10

Reference: patent US11591355B2 (Peloton Therapeutics, Inc., priority 2017, dated 2023)
